Experimental findings from patent publication US20110195900A1, “PEPTIDIC PTH RECEPTOR AGONISTS” (FERRING B.V., priority 2008, published 2011) are described below.

Where two headings read alike, the source gives them in different places. Non-standard residues stand in square brackets, D forms with d. Residues, ends and D or L forms follow the SMILES beside them. 1Nal = N[C@@H](Cc1cccc2ccccc12)C(=O)O; 2Nal = N[C@@H](Cc1ccc2ccccc2c1)C(=O)O; β3hI = CC[C@H](C)[C@H](N)CC(=O)O; hSer = N[C@@H](CCO)C(=O)O; Nle = CCCC[C@H](N)C(=O)O; β3hA = C[C@H](N)CC(=O)O; Aib = CC(C)(N)C(=O)O; βAla = NCCC(=O)O

For the assay, the target named is T1, human PTH-1 receptor (Homo sapiens, UniProt Q03431).
T1 construct: expressed in transfected cells; host or cells: HEK-293
T1 sequence (Q03431 27-593): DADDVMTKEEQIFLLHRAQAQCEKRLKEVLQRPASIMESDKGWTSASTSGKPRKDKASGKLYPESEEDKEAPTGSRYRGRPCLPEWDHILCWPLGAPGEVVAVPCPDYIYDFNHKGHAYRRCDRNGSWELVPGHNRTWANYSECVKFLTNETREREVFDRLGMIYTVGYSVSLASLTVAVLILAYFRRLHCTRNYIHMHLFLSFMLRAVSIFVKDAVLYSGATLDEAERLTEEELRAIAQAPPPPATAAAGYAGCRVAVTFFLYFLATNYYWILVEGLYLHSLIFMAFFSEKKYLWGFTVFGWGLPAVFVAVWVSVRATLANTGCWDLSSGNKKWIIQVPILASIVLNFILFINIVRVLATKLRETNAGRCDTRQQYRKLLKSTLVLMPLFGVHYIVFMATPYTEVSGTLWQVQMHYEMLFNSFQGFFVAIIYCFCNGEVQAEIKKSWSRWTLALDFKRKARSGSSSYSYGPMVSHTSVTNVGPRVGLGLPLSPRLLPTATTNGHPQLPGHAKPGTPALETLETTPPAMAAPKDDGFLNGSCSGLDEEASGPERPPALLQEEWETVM
Put plainly: Reporter gene assay (CRE-luciferase) for agonist activity in transiently transfected HEK-293 cells. Format: cell-based. The note with it: for hPTHR-2/hPTHR-1: Table 3, selectivity for hPTH-1 receptor over hPTH-2 receptor; for hPTHR-2/hPTHR-1 / Selectivity hPTHR-2/hPTHR-1: ratio of EC50 values. The method, boiled down: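 Selectivity came from luciferase transcriptional reporter assays expressing human PTH-2 receptor. PTH-1 agonism used transiently transfected HEK-293 cells carrying SV40-promoter receptor and cAMP-responsive-element luciferase; 4-5 h compound exposure, lysis, luminescence, non-linear-regression EC50/efficacy; ≥3 independent runs, PTH (1-34) control each.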
(In general: Reporter assays use an easily measured gene product as a stand-in for the process of interest.)

On to `CCCC[C@H](NC(=O)[C@H](CC(C)C)NC(=O)[C@H](CCC(N)=O)NC(=O)[C@@H](NC(=O)[C@H](CCC(=O)O)NC(=O)[C@H](CO)NC(=O)[C@@H](NC(=O)[C@@H](N)CO)C(C)C)[C@@H](C)CC)C(=O)N[C@@H](Cc1c[nH]cn1)C(=O)N[C@@H](CC(N)=O)C(=O)N[C@@H](CC(C)C)C(=O)NCC(=O)N[C@@H](CCCCN)C(=O)N[C@@H](Cc1c[nH]cn1)C(=O)N[C@@H](CC(C)C)C(=O)N[C@@H](CC(N)=O)C(=O)N[C@@H](CO)C(=O)N[C@H](CC(=O)N[C@@H](CCC(=O)O)C(=O)N[C@@H](CCCNC(=N)N)C(=O)N[C@H](C(=O)N[C@@H](CCC(=O)O)C(=O)N[C@@H](Cc1cccc2ccccc12)C(=O)N[C@@H](CC(C)C)C(=O)N[C@@H](CCCNC(=N)N)C(=O)N[C@@H](CCCCN)C(=O)N[C@@H](CC(C)C)C(=O)N[C@@H](CC(C)C)C(=O)N[C@@H](CCC(N)=O)C(=O)N[C@@H](CC(=O)O)C(=O)N[C@H](C(=O)O)C(C)C)C(C)C)[C@@H](C)CC` [SEQ ID NO: 10, [Nle^8, β-hIle^18,1-Nal^23, Leu^27] hPTH (1-31)-OH] (H-SVSEIQL[Nle]HNLGKHLNS[β3hI]ERVE[1Nal]LRKLLQDV-OH), for which a half-maximal response (EC50) required 0.09 nM and the hPTHR-2/hPTHR-1 amounted to 811.

In the case of `CCCC[C@H](NC(=O)[C@H](CC(C)C)NC(=O)[C@H](CCC(N)=O)NC(=O)[C@@H](NC(=O)[C@H](CCC(=O)O)NC(=O)[C@H](CO)NC(=O)[C@@H](NC(=O)[C@@H](N)CO)C(C)C)[C@@H](C)CC)C(=O)N[C@@H](Cc1c[nH]cn1)C(=O)N[C@@H](CC(N)=O)C(=O)N[C@@H](CC(C)C)C(=O)NCC(=O)N[C@@H](CCCCN)C(=O)N[C@@H](Cc1c[nH]cn1)C(=O)N[C@@H](CC(C)C)C(=O)N[C@@H](CO)C(=O)N[C@@H](CO)C(=O)N[C@H](CC(=O)N[C@@H](CCC(=O)O)C(=O)N[C@@H](CCCNC(=N)N)C(=O)N[C@H](C(=O)N[C@@H](CCC(=O)O)C(=O)N[C@@H](Cc1cccc2ccccc12)C(=O)N[C@@H](CC(C)C)C(=O)N[C@@H](CCCNC(=N)N)C(=O)N[C@@H](CCCCN)C(=O)N[C@@H](CC(C)C)C(=O)N[C@@H](CC(C)C)C(=O)N[C@@H](CCC(N)=O)C(=O)N[C@@H](CC(=O)O)C(=O)N[C@H](C(=O)N[C@@H](Cc1c[nH]cn1)C(=O)N[C@@H](CC(N)=O)C(=O)N[C@@H](Cc1ccccc1)C(N)=O)C(C)C)C(C)C)[C@@H](C)CC` [SEQ ID NO: 22, [Nle^8, Ser^16, β-hIle^18,1-Nal^23, Leu^27] hPTH (1-34)-NH2] (H-SVSEIQL[Nle]HNLGKHLSS[β3hI]ERVE[1Nal]LRKLLQDVHNF-NH2), the EC50 came out at 0.19 nM and the hPTHR-2/hPTHR-1 is given as 101.

For `CCCC[C@H](NC(=O)[C@H](CC(C)C)NC(=O)[C@H](CCC(N)=O)NC(=O)[C@@H](NC(=O)[C@H](CCC(=O)O)NC(=O)[C@H](CO)NC(=O)[C@@H](NC(=O)C(C)(C)N)C(C)C)[C@@H](C)CC)C(=O)N[C@@H](Cc1c[nH]cn1)C(=O)N[C@@H](CO)C(=O)N[C@@H](CC(C)C)C(=O)NCC(=O)N[C@@H](CCCCN)C(=O)N[C@@H](Cc1c[nH]cn1)C(=O)N[C@@H](CC(C)C)C(=O)N[C@@H](CCCCN)C(=O)N[C@@H](CO)C(=O)N[C@H](CC(=O)N[C@@H](CCC(=O)O)C(=O)N[C@@H](CCCNC(=N)N)C(=O)N[C@H](C(=O)N[C@@H](CCC(=O)O)C(=O)N[C@@H](Cc1cccc2ccccc12)C(=O)N[C@@H](CC(C)C)C(=O)N[C@@H](CCCNC(=N)N)C(=O)N[C@@H](CCCCN)C(=O)N[C@@H](CC(C)C)C(=O)N[C@@H](CC(C)C)C(=O)N[C@@H](CCC(N)=O)C(=O)N[C@@H](CCCNC(=N)N)C(=O)N[C@H](C(=O)N[C@@H](Cc1c[nH]cn1)C(=O)N[C@@H](CCC(=O)O)C(=O)N[C@@H](CCC(=O)O)C(N)=O)C(C)C)C(C)C)[C@@H](C)CC` [SEQ ID NO: 4, [Aib^1, Nle^8, Ser^10, Lys^16, β-hIle^18,1-Nal^23, Leu^27, Arg^30, Glu^33, Glu^34] hPTH (1-34)-NH2] (H-[Aib]VSEIQL[Nle]HSLGKHLKS[β3hI]ERVE[1Nal]LRKLLQRVHEE-NH2), the EC50 was determined as 0.04 nM and the hPTHR-2/hPTHR-1 is given as 110.

As for `CCCC[C@H](NC(=O)[C@H](CC(C)C)NC(=O)[C@H](CCC(N)=O)NC(=O)[C@@H](NC(=O)[C@H](CCC(=O)O)NC(=O)[C@H](CO)NC(=O)[C@@H](NC(=O)[C@@H](N)CO)C(C)C)[C@@H](C)CC)C(=O)N[C@@H](Cc1c[nH]cn1)C(=O)N[C@@H](CC(N)=O)C(=O)N[C@@H](CC(C)C)C(=O)NCC(=O)N[C@@H](CCCCN)C(=O)N[C@@H](Cc1c[nH]cn1)C(=O)N[C@@H](CC(C)C)C(=O)N[C@@H](CC(N)=O)C(=O)N[C@@H](CO)C(=O)N[C@H](CC(=O)N[C@@H](CCC(=O)O)C(=O)N[C@@H](CCCNC(=N)N)C(=O)N[C@H](C(=O)N[C@@H](CCC(=O)O)C(=O)N[C@@H](Cc1ccc2ccccc2c1)C(=O)N[C@@H](CC(C)C)C(=O)N[C@@H](CCCNC(=N)N)C(=O)N[C@@H](CCCCN)C(=O)N[C@@H](CCCCN)C(=O)N[C@@H](CC(C)C)C(=O)N[C@@H](CCC(N)=O)C(=O)N[C@@H](CC(=O)O)C(=O)N[C@H](C(=O)N[C@@H](Cc1c[nH]cn1)C(=O)N[C@@H](CC(N)=O)C(=O)N[C@@H](Cc1ccccc1)C(N)=O)C(C)C)C(C)C)[C@@H](C)CC` [SEQ ID NO: 53, [Nle^8, β-hIle^18,2-Nal^23] hPTH (1-34)-NH2] (H-SVSEIQL[Nle]HNLGKHLNS[β3hI]ERVE[2Nal]LRKKLQDVHNF-NH2), the EC50 (Table 4 comparison data, HEK-293 cells, CRE-luciferase, read-out: hPTHR-1 EC50) is 0.25 nM. Besides, for the setting “Table 4 comparison data”, the “Selectivity hPTHR-2/hPTHR-1” value stood at 170.

As for `CCCC[C@H](NC(=O)[C@H](CC(C)C)NC(=O)[C@H](CCC(N)=O)NC(=O)[C@@H](NC(=O)[C@H](CCC(=O)O)NC(=O)[C@H](CO)NC(=O)[C@@H](NC(=O)[C@@H](N)CO)C(C)C)[C@@H](C)CC)C(=O)N[C@@H](Cc1c[nH]cn1)C(=O)N[C@@H](CC(N)=O)C(=O)N[C@@H](CC(C)C)C(=O)NCC(=O)N[C@@H](CCCCN)C(=O)N[C@@H](Cc1c[nH]cn1)C(=O)N[C@@H](CC(C)C)C(=O)N[C@@H](CC(N)=O)C(=O)NCCC(=O)N[C@@H](CCOC)C(=O)N[C@@H](CCC(=O)O)C(=O)N[C@@H](CCCNC(=N)N)C(=O)N[C@H](C(=O)N[C@@H](CCC(=O)O)C(=O)N[C@@H](Cc1cccc2ccccc12)C(=O)N[C@@H](CC(C)C)C(=O)N[C@@H](CCCNC(=N)N)C(=O)N[C@@H](CCCCN)C(=O)N[C@@H](CC(C)C)C(=O)N[C@@H](CC(C)C)C(=O)N[C@@H](CCC(N)=O)C(=O)N[C@@H](CC(=O)O)C(=O)N[C@H](C(=O)N[C@@H](Cc1c[nH]cn1)C(=O)N[C@@H](CC(N)=O)C(=O)N[C@@H](Cc1ccccc1)C(N)=O)C(C)C)C(C)C` [SEQ ID NO: 16, [Nle^8, β-Ala^17, hSer(OMe)^18,1-Nal^23, Leu^27] hPTH (1-34)-NH2] (H-SVSEIQL[Nle]HNLGKHLN[βAla][hSer](Me)ERVE[1Nal]LRKLLQDVHNF-NH2), the EC50 was found to be 0.13 nM and the hPTHR-2/hPTHR-1 came to 719.

Regarding `CCCC[C@H](NC(=O)[C@H](CC(C)C)NC(=O)[C@H](CCC(N)=O)NC(=O)[C@@H](NC(=O)[C@H](CCC(=O)O)NC(=O)[C@H](CO)NC(=O)[C@@H](NC(=O)[C@@H](N)CO)C(C)C)[C@@H](C)CC)C(=O)N[C@@H](Cc1c[nH]cn1)C(=O)N[C@@H](CC(N)=O)C(=O)N[C@@H](CC(C)C)C(=O)NCC(=O)N[C@@H](CCCCN)C(=O)N[C@@H](Cc1c[nH]cn1)C(=O)N[C@@H](CC(C)C)C(=O)N[C@@H](CC(N)=O)C(=O)N[C@@H](CO)C(=O)N[C@@H](C)CC(=O)N[C@@H](CCC(=O)O)C(=O)N[C@@H](CCCNC(=N)N)C(=O)N[C@H](C(=O)N[C@@H](CCC(=O)O)C(=O)N[C@@H](Cc1ccc2ccccc2c1)C(=O)N[C@@H](CC(C)C)C(=O)N[C@@H](CCCNC(=N)N)C(=O)N[C@@H](CCCCN)C(=O)N[C@@H](CCCCN)C(=O)N[C@@H](CC(C)C)C(=O)N[C@@H](CCC(N)=O)C(=O)N[C@@H](CC(=O)O)C(=O)N[C@H](C(=O)N[C@@H](Cc1c[nH]cn1)C(=O)N[C@@H](CC(N)=O)C(=O)N[C@@H](Cc1ccccc1)C(N)=O)C(C)C)C(C)C` [SEQ ID NO: 52, [Nle^8, β-hAla^18,2-Nal^23] hPTH (1-34)-NH2] (H-SVSEIQL[Nle]HNLGKHLNS[β3hA]ERVE[2Nal]LRKKLQDVHNF-NH2), for the setting “Table 4 comparison data”, the “Selectivity hPTHR-2/hPTHR-1” value is reported as 215.

In general, EC50 refers to the concentration at which the effect is half-maximal.
